For six compounds, IC50 and inhibition results are on record in patent publication US9975857B2, “Inhibition of bacterial biofilms with imidazole-phenyl derivatives” (North Carolina State University, priority 2008, dated 2018).

One may read the IC50 as the point on the concentration scale where inhibition reaches its midpoint. By inhibition is commonly meant the drop in the measured response relative to a control, in per cent.

For one assay, the system named is A. baumannii. Briefly: Biofilm inhibition assay (crystal violet, 96-well PVC plate). The class given is cell-based. The conditions noted are these: Acinetobacter baumannii; LB medium, 37° C., 24 hours, crystal violet OD540; read-out: ACTIVITY against A. baumannii: IC50 (biofilm inhibition). The procedure: Biofilm inhibition assays were performed by taking an overnight culture of bacterial strain and subculturing it at an OD600 of 0.10 into LB medium. The compound being tested was then added at a predetermined concentration and then aliquoted (100 μL) into the wells of a 96-well PVC microtiter plate (Wells not used for samples were filled with 100 μL of de-ionized water). Plates were then wrapped in GLAD Press n' Seal® and incubated under stationary conditions at 37° C. After 24 hours, the media was discarded from the wells and the plates were washed thoroughly with tap water. Plates were then stained with 100 μL of 0.1% solution of crystal violet (CV) and then incubated at an ambient temperature for 30 minutes. Sample plates were then washed with tap water again, and the remaining stain was solubilized with 200 μL of 95% ethanol. Biofilm inhibition was quantitated by measuring the OD540 for each well by transferring 125 μL of the solubilized CV stain into a polystyrene microtiter dish for analysis.
For `Nc1ncc(-c2ccc(C#Cc3cc(F)cc(F)c3)cc2)[nH]1`, the IC50 is below 50 µM.

As for `Nc1ncc(-c2ccc(C#Cc3ccccc3)cc2)[nH]1`, the IC50 is 6.54 µM.

For the compound `COc1ccc(C#Cc2ccccc2-c2cnc(N)[nH]2)c(C)c1`, the IC50 fell in the range of 40 to 50 µM.

Take `Nc1ncc(-c2ccccc2C#Cc2cccc(Cl)c2)[nH]1`: the IC50 was below 50 µM.

On to `Nc1ncc(-c2ccccc2C#Cc2ccccc2)[nH]1`, for which the IC50 is 50 to 75 µM.

Staying with this assay, now noted: Acinetobacter baumannii; at 100 μM; LB medium, 37° C., 24 hours, crystal violet OD540; read-out: ACTIVITY against A. baumannii: % inhibition (biofilm inhibition).
On to `COc1ccccc1C#Cc1cccc(-c2cnc(N)[nH]2)c1`, for which the inhibition at 100 µM was 34%.
